{
  "source": "paper PMC7615677",
  "about": "(Science translational medicine, 2023)",
  "tested_on": "L. infantum",
  "test": "Promastigote back-transformation assay on organs of treated hamsters",
  "type": "in vivo, golden hamsters",
  "settings": "for parasite score, Bone-marrow / parasite score, Liver / parasite score, Spleen: 5 days, individual animals 1-5",
  "description": "Female golden hamsters (5 per treatment group) were infected through intracardiac administration of 2x10^7 L. infantum amastigotes obtained from the spleen of a heavily infected donor hamster. […] After 5-day treatment period, followed by a 10-day wash out period, animals were sacrificed, and parasites burden assessed in the three target organs (liver, spleen, and bone-marrow). For this assessment, organs of individual animals were weighed, except for bone-marrow thus only providing a semi-quantitative evaluation only. Impression smears were Giemsa-stained for microscopic evaluation of amastigote burden, expressed as LDU (= mean number of amastigotes/cell × organ weight in mg) and the results were expressed as a percentage reduction compared to the burdens in the control group (vehicle as placebo). For evaluating the presence of viable residual burden after treatment, a promastigote back-transformation assay was conducted. This consisted of the incubation at ambient temperature of aseptically collected pieces of spleen or liver tissue in 1 mL of promastigote back-transformation medium in 24-well plates. For the bone-marrow, resected femurs were flushed with 1 mL medium. The medium consists of HOMEM pH 6.0 prepared as described elsewhere ([5]) with 10% fetal bovine serum (Gibco), 2.5% penicillin/streptomycin and 1% gentamicin (Merck). A qualitative assessment of the presence of promastigotes was made after 3 and 5 days of incubation and a score was attributed (+, ++ or +++) based on parasite density in the positive wells.\nSupplementary Materials and methods\nPromastigote transformation assay\nFor evaluating the presence of viable residual burdens after treatment, a promastigote back-transformation assay is conducted. This test consists of the incubation at ambient temperature of aseptically collected pieces of spleen or liver tissue in 1 mL of promastigote back-transformation medium in 24-well plates. For the bone-marrow, resected femurs are flushed with 1 mL medium. The medium consists of HOMEM pH 6.0 prepared as described elsewhere (1) with 10% fetal bovine serum (Gibco) and 2.5% penicillin/streptomycin and 1% gentamicin (Merck). A qualitative assessment of the presence of promastigotes is made after 3 and 5 days of incubation and a score is attributed (+, ++ or +++) based on parasite density in the positive […]\nSupplementary Information on Tables\nL. infantum MHOM/FR/96/LEM3323 Cl4 was originally obtained from a French HIV-positive patient (Languedoc area in Southern France) and provided by Dr. Laurence Lachaud of the Centre National de Référence des Leishmanioses (CNRL), Montpellier, France. The miltefosine and paromomycin resistant lines (LEM3323 Cl4 MIL-R and PMM-R) were obtained by successive in vitro selection cycles on intracellular amastigotes (2, 3)",
  "note": "Where “and” joins values, the source holds several entries; their conditions need not be identical. Equal values may be shown once.",
  "data": [
    {"compound": "Cc1[nH]c2nc(N)nc(C)c2c1-c1ccc(C#N)c2c1OCO2", "note": "[DNDI-6174]", "values": [
      {"measurement": "parasite score, Bone-marrow", "setting": "3.125 mg/kg bid", "result": "++"},
      {"measurement": "parasite score, Liver", "setting": "3.125 mg/kg bid", "result": "+ (3×) and - (2×)"},
      {"measurement": "parasite score, Spleen", "setting": "3.125 mg/kg bid", "result": "++"},
      {"measurement": "parasite score, Bone-marrow", "setting": "12.5 mg/kg bid", "result": "- and +"},
      {"measurement": "parasite score, Liver", "setting": "12.5 mg/kg bid", "result": "-"},
      {"measurement": "parasite score, Spleen", "setting": "12.5 mg/kg bid", "result": "- and +"},
      {"measurement": "parasite score, Bone-marrow", "setting": "12.5 mg/kg qd", "result": "+ (3×) and ++ (2×)"},
      {"measurement": "parasite score, Liver", "setting": "12.5 mg/kg qd", "result": "+ (3×) and - (2×)"},
      {"measurement": "parasite score, Spleen", "setting": "12.5 mg/kg qd", "result": "++ (4×) and +"},
      {"measurement": "parasite score, Bone-marrow", "setting": "25 mg/kg qd", "result": "+ and - (4×)"},
      {"measurement": "parasite score, Liver", "setting": "25 mg/kg qd", "result": "- (4×) and +"},
      {"measurement": "parasite score, Spleen", "setting": "25 mg/kg qd", "result": "-"},
      {"measurement": "parasite score, Bone-marrow", "setting": "50 mg/kg qd", "result": "- (4×) and +"},
      {"measurement": "parasite score, Liver", "setting": "50 mg/kg qd", "result": "- (4×) and +"},
      {"measurement": "parasite score, Spleen", "setting": "50 mg/kg qd", "result": "- (4×) and +"},
      {"measurement": "emergence of viable promastigotes from recovered organs, in words", "setting": "DNDI-6174 treated animals", "result": "almost all the organs recovered proved to be negative in culture"}
    ]}
  ]
}
